Results as given in PMC9203742 (Nature Communications, 2022).
Several values for one entry are separate records, joined by “and”; a condition that tells them apart may be missing. Equal entries are not always repeated.

What was measured:
[1] = test system: HEK293 cells, vector control; assay: Fura-2 Ca2+ imaging in HEK293 cells transfected with control vector (Vec); type: cell-based; details: single-cell values #1-#20
[2] = target: T1, mGlu1 K61H/N264H mutant (Rattus norvegicus, UniProt P23385, K61H/N264H); assay: Fura-2 Ca2+ imaging in HEK293 cells expressing mGlu1 K61H/N264H; type: cell-based
T1 construct: expressed in transfected cells; host or cells: HEK293
T1 sequence (P23385 19-1199 K61H/N264H): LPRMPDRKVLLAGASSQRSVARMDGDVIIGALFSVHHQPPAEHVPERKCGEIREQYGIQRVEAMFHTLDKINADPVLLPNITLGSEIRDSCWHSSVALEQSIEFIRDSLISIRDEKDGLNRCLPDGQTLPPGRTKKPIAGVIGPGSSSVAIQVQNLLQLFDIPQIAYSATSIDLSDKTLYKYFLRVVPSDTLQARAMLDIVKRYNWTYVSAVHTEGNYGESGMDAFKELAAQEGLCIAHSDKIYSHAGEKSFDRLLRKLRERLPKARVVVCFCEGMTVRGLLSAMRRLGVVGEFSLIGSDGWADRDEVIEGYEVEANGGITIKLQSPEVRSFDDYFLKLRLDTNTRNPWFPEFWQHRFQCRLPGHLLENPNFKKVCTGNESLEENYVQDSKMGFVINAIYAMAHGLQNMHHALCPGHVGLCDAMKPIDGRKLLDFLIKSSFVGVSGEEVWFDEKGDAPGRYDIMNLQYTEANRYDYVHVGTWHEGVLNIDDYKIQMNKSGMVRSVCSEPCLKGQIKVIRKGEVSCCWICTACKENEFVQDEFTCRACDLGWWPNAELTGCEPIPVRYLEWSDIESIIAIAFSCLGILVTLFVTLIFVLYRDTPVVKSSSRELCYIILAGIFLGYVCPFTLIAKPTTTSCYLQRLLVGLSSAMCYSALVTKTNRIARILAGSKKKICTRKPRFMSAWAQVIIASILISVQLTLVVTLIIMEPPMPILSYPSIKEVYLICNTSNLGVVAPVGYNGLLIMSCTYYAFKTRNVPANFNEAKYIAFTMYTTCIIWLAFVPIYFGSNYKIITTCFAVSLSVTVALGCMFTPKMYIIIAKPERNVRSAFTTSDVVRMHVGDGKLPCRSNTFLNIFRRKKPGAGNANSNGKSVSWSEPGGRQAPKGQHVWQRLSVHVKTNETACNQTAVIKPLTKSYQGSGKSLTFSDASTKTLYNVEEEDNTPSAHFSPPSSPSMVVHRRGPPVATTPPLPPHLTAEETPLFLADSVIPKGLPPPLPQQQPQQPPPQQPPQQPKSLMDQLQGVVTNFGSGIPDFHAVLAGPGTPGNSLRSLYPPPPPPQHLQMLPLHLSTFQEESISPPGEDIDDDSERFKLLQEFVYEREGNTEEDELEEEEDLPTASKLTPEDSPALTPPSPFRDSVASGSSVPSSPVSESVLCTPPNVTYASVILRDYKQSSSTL

[3] = target: T2, WT mGlu1 (Rattus norvegicus, UniProt P23385); type: cell-based; details: single-cell values #1-#20; WT
T2 construct: expressed in transfected cells; host or cells: HEK293
T2 sequence (P23385 19-1199): as the sequence (P23385 19-1199 K61H/N264H) above, with H43K, H246N counted along it

[4] = test system: PC12 cells; assay: NGF-induced neurite outgrowth in differentiated PC12 cells; type: cell-based; design: neurite outgrowth, individual values #1-#20 (Fig.4b): unit not given here; details: for neurite outgrowth, individual values #1-#20 (Fig.4b): differentiated PC12 cells
Description: After incubation for 3 days, PC12 cells bearing neurites were randomly selected, and the length of the longest neurite in each cell was measured using ImageJ package Fiji.

[5] = target: T3, mGlu1(N264H) mutant (Rattus norvegicus, UniProt P23385, N264H); assay: Inositol-1-phosphate (IP1) accumulation assay, HEK293 cells expressing mGlu1(N264H); type: cell-based
T3 construct: expressed in transfected cells; host or cells: HEK293
T3 sequence (P23385 19-1199 N264H): as the sequence (P23385 19-1199 K61H/N264H) above, with H43K counted along it

[6] = target: T4, mGlu1 A59H/A265H mutant (Rattus norvegicus, UniProt P23385, A265H/A59H); assay: Fura-2 Ca2+ imaging in HEK293 cells expressing mGlu1 A59H/A265H; type: cell-based; details: single-cell values
T4 construct: expressed in transfected cells; host or cells: HEK293
T4 sequence (P23385 19-1199 A59H/A265H): as the sequence (P23385 19-1199 K61H/N264H) above, with A41H, H43K, H246N, A247H counted along it

[7] = target: T5, mGlu1 A59H/N264H mutant (Rattus norvegicus, UniProt P23385, A59H/N264H); assay: Fura-2 Ca2+ imaging in HEK293 cells expressing mGlu1 A59H/N264H; type: cell-based
T5 construct: expressed in transfected cells; host or cells: HEK293
T5 sequence (P23385 19-1199 A59H/N264H): as the sequence (P23385 19-1199 K61H/N264H) above, with A41H, H43K counted along it

[8] = target: T3, mGlu1(N264H) mutant; assay: Fura-2 Ca2+ imaging in HEK293 cells expressing mGlu1(N264H); type: cell-based
[9] = test system: mGlu1 construct not given; assay: Fura-2 Ca2+ imaging in HEK293 cells, source data Suppl Fig1, middle group (c9-c17); construct not given; type: cell-based, rat; details: single-cell values, cells #15-#20; middle group of third block
Text: Supplement 41467_2022_30828_MOESM6_ESM.zip/Ojima et al_source data_Suppl Fig.xlsx, sheet "Suppl Fig1" | column: Glu; NiCl2; CuCl2; ZnCl2; CdCl2; Na2PdCl2; Pd(bpy)

[10] = target: T6, mGlu1 P57H/N264H mutant (Rattus norvegicus, UniProt P23385, N264H/P57H); assay: Fura-2 Ca2+ imaging in HEK293 cells expressing mGlu1 P57H/N264H; type: cell-based; details: single-cell values #1-#20; P57H/N264H
T6 construct: expressed in transfected cells; host or cells: HEK293
T6 sequence (P23385 19-1199 P57H/N264H): as the sequence (P23385 19-1199 K61H/N264H) above, with P39H, H43K counted along it

[11] = HEK293 cells, Fura-2, read-out: EC50, Ca2+ response (Δratio)

With O=[N+]([O-])[O-].O=[N+]([O-])[O-].[Pd+2].c1ccc(-c2ccccn2)nc1 [Pd(bpy), Pd(bpy)(NO3)2] the “Ca2+ response of individual cells (source data Suppl Fig1), Vec” value [1] was -0.004731 and 0.3238 and -0.02602 and 0.02754 and -0.0031 and 0.006285 and -0.02257 and 0.004254 and 0.003354 and -0.004338 and -0.001023 and 0.0058 and -0.01141 and 0.05108 and 0.0005846 and 0.297 and 0.004723 and 0.01628 and 0.03037, the EC50 [2, 11] was 2300 nM and the “Ca2+ response of individual cells (source data Suppl Fig1), K61H/N264H” value ([2]; single-cell values, K61H/N264H) was 0.2703 and 0.5297 and 0.971 and -0.1576 and 0.5357 and 0.5344 and 1.086 and 1.005 and 0.6767 and 0.2693 and 0.4514 and -0.009392 and 0.06739 and -0.01372. For the same molecule, the “Ca2+ response of individual cells (source data Suppl Fig1), WT” value [3] was -0.002508 and 0.03248 and -0.005946 and 0.001185 and -0.01881 and -0.01405 and 0.05177 and 0.006038 and 0.01295 and 0.02212 and 0.002477 and -0.0007231 and 0.1314 and 0.1045 and 0.02565 and -0.005715 and 0.004592 and -0.01058 and -0.003931 and 0.0524, the Neurite outgrowth ([4]; 100 μM, 3 days, NGF-differentiated) was “not affected” and the “neurite outgrowth, individual values #1-#20 (Fig.4b)” value (from here on “neurite outgrowth … (Fig.4b)”) ([4]; [Pd(bpy)] 1 µM) was 135.681 and 134.669 and 132.267 and 127.77 and 127.752 and 123.426 and 118.782 and 113.497 and 109.51 and 107.296 and 102.296 and 95.2965 and 92.9706 and 197.35 and 182.054 and 180.267 and 162.995 and 150.48 and 140.539 and 136.598. For the same molecule, the “neurite outgrowth … (Fig.4b)” value ([4]; [Pd(bpy)] 3 µM) was 125.971 and 116.953 and 113.154 and 109.598 and 107.841 and 88.6396 and 86.7696 and 85.5685 and 80.0833 and 79.598 and 79.4975 and 76.3259 and 73.1127 and 263.255 and 244.078 and 176.493 and 155.64 and 151.309 and 138.368 and 127.894, the “neurite outgrowth … (Fig.4b)” value ([4]; [Pd(bpy)] 10 µM) was 140.024 and 139.953 and 126.728 and 122.326 and 118.61 and 116.811 and 111.912 and 108.941 and 106.468 and 103.983 and 102.368 and 92.3553 and 91.5269 and 184.551 and 173.426 and 168.711 and 166.853 and 164.196 and 142.426 and 140.681 and the “neurite outgrowth … (Fig.4b)” value ([4]; [Pd(bpy)] 30 µM) was 110.627 and 105.752 and 95.8406 and 93.1838 and 90.6274 and 88.9706 and 84.7696 and 80.5685 and 78.2548 and 76.598 and 71.4264 and 67.1127 and 62.669 and 292.527 and 200.326 and 143.51 and 135.196 and 131.456 and 117.853 and 113.811. The “neurite outgrowth … (Fig.4b)” value ([4]; [Pd(bpy)] 100 µM) was 136.698 and 130.77 and 122.681 and 121.338 and 121.125 and 116.924 and 109.267 and 109.255 and 105.042 and 102.225 and 101.456 and 94.5391 and 93.196 and 186.64 and 184.25 and 163.439 and 159.066 and 147.882 and 142.225 and 138.024, the “IP1 accumulation, single experiments” value ([5]; 30 µM Pd(bpy), N264H) was 1.924 and 2.4034 and 1.9034 and 1.783 and the “IP3 production evaluated by IP1 accumulation” value ([5]; Pd(bpy) 30 µM / 10 μM (method)) was “increased”. For the same molecule, the “Ca2+ response of individual cells (source data Suppl Fig1), A59H/A265H” value [6] was -0.002885 and -0.009254 and 0.08719 and 0.008869 and -0.009738 and 0.003808 and 0.004285 and 0.02012 and -0.02372 and -0.01536 and -0.009285 and -0.02246 and 0.01085 and 0.1127, the EC50 [7, 11] was 3.8 µM and the “Ca2+ response of individual cells (source data Suppl Fig1), A59H/N264H” value ([7]; single-cell values #1-#20, A59H/N264H) was 0.6362 and 0.8074 and 0.5582 and 0.806 and 0.7717 and -0.01028 and 0.5677 and 0.7063 and 0.5602 and 0.7126 and 0.6578 and 1.118 and 1.1499 and 0.77 and 0.5325 and 0.4993 and 0.7176 and 0.6258 and 0.8578 and 0.6525. For the same molecule, the “Positive allosteric effect: dose-dependency of glutamate-induced responses” value ([8]; 3 µM Pd(bpy) in the presence of 10 µM LY367385) was “unaffected”, the “Time to basal level after wash-out by culture medium” value ([8]; 10 µM agonist, n = 15) was 49.0 ± 6.4 s and the EC50 [8, 11] was 1600 nM. The “Pd(bpy) off” value ([8]; ave of 15 cells) was 49 s, the “Pd(bpy) on” value ([8]; ave of 15 cells) was 58 s and the “Effect on 100 μM glutamate-induced response” value ([8]; in the presence of LY367385, P = 0.3803) was “not enhanced”. For the same molecule, the “Ca2+ response to Pd complex, individual cells #1-#20 (Fig.4e)” value ([8]; single-cell values) was 0.1987 and 0.007031 and 0.6462 and 0.6597 and 0.6897 and 0.134 and 0.5276 and 0.6019 and 0.1524 and 0.7025 and 0.5861 and 1.131 and 0.7531 and 0.5352 and 0.5053 and 0.4553 and 0.9996 and 0.7233 and 0.7477 and 0.221, the “Ca2+ response of individual cells (source data, sheet Suppl Fig1)” value [9] was 0.04373 and -0.04935 and -0.001077 and -0.04196 and -0.007292 and 0.01256 and the “Ca2+ response of individual cells (source data Suppl Fig1), P57H/N264H” value [10] was 1.496 and 0.4197 and 0.3632 and 0.5618 and 0.3459 and 0.2699 and 0.5435 and -0.005777 and 0.04309 and 0.04215 and 0.5777 and 1 and 0.77 and 0.6187 and 0.5778 and -0.002723 and 0.1859 and 0.08165 and 0.3295 and 0.5272.
